According to US12473295B2, “Substituted straight chain spiro derivatives” (Janssen Pharmaceutica NV, priority 2019, dated 2025):
Structures can show the parent of a compound that is named as a salt.

Key:
Cor.4U Cardiomyocytes = test: Ca2+-fluorescence assay in human pluripotent stem cell-derived cardiomyocytes (CTCM human), Cor.4U Cardiomyocytes; type: cell-based; set-up: key: Green: No concern; Yellow: Low concern; Red: High concern; Black: Very high concern due to arrhythmic events; conditions: 30 min
Experimental: (§1) 7) Cardio-Electrophysiological Effects of the Testing Compounds in Synchronously Beating Human Pluripotent Stem Cell-Derived Cardiomyocytes (hSC-CMs) Using a Ca^2+-Fluorescence Assay (CTCM Human)
(§2) Compounds were tested in the 96-well plates
Compounds were tested at 0.1 μM, 0.2 μM, 0.5 μM, 1 μM, 2.5 μM and 5 μM (n=4 per dose) on Cor.4U 9-Cardiomyocytes or on iCell® Cardiomyocytes2 […]
(§3) Dimethylsulfoxide (DMSO). The solutions of the compound in DMSO or its solvent (final concentration of 0.1% DMSO; n=8)
(§4) Preparation of Test Article and Controls
(§5) Tested compounds were dissolved in DMSO at 1000-fold the intended concentrations. A compound “mother-plate” was made, containing the test compounds and positive and negative controls at 1000-fold the final concentrations. At the experiment day, these stock solutions were diluted with Tyrode (Sigma), supplemented with 10 mM HEPES (Gibco), to 2-fold the intended concentration (in round bottom compound plates). Final DMSO concentration in test solutions and vehicle control was 0.1%.
hSC-CMs (Cor.4U® Cardiomyocytes) were obtained from CDI (Ncardia, Germany). Cells are pre-plated and seeded in fibronectin-coated 96-well plates at a density suited to form a monolayer and maintained in culture in a stage incubator (37° C., 5% CO2), according to the instructions of the cell provider.
(§6) Before Start of Experiment
(§7) At least one hour before the start of the experiments the normal cell medium was replaced with Tyrode solution with Calcium dye (see below).
(§8) Cal 520 dye (AAT Bioquest) was dissolved in 11 ml of Tyrode supplemented with 10 mM HEPES and warmed up to 37° C. before adding to the cells.
(§9) 35 μl cell culture medium was removed from each well and replaced with 35 μl of pre-warmed Cal 520 dye solution and cell plate was incubated for 45 min at 37° C./5% CO2. Cells were incubated for 5 min at 37° C.
(§10) Spontaneous electrical activity is recorded, using Cal520™ (AAT Bioquest) calcium fluorescence-dye signaling. This dye integrates the total intracellular calcium activity over the whole well. A bottle of Cal520 dye (50 μg, MW: 1103/mol) is dissolved with 50 μl DMSO as a stock solution of 0.9 mM. 50 μL of the stock solution of the dye was added to 10 ml Tryodes solution to have dye concentration of 4.5 μM. Subsequently, 35 μl of this dye solution was added into each well, to have a final dye concentration of 1.58 μM. The current dye protocol on this CTCM human assay was established recently (Ivan Kopljar et al, Journal of Pharmacological and toxicological methods 2018. 91: 80-86; Lu et al., Tox Sci 2019. 170 (2): 345-356).
(§11) Fluorescent signals (Ca^2+ transient morphology) were measured using the Functional Drug Screen System (FDSS/μCell; Hamamatsu, Japan) and the recordings were subsequently analyzed off-line, using appropriate software e.g. Notocord.
(§12) The cell plate was loaded into the FDSS/μCell for a test run: Ca^2+ transients were measured for 4 minutes to check for synchronous beating of the cardiomyocytes in each well. All 96 wells were measured simultaneously (sampling interval: 0.06 s, short exposure time: 10 ms; excitation wavelength 480 nm; emission wavelength 540 nm; FDSS/μCell warmed to 37° C.).
(§13) During the compound addition step, 100 μl of the respective double-concentrated test solutions was pipetted into each well simultaneously.
(§14) Data were analyzed off-line using appropriate software e.g. Notocord-Hem (version 4.3).
The following parameters of the Ca^2′ transient morphology were measured: • beat rate (BR) • amplitude of the Ca^2+ transient (Amp), • CTD90: Ca^2+ transient duration at 90% (time to 90% of the initial base value).
The presence of various ‘arrhythmia-like’ activities were also noted during the experimental periods. […]

iCell Cardiomyocytes2 = test: Ca2+-fluorescence assay in human pluripotent stem cell-derived cardiomyocytes (CTCM human), iCell Cardiomyocytes2; type: cell-based; set-up: key: Green: No concern; Yellow: Low concern; Red: High concern; Black: Very high concern due to arrhythmic events; conditions: 30 min
Experimental: as §1, §2
Compounds were tested at 0.1 μM, 0.2 μM, 0.5 μM, 1 μM, 2.5 μM and 5 μM (n=4 per dose) on Cor.4U 9-Cardiomyocytes or on iCell® Cardiomyocytes2
Alternatively, compounds were tested at 0.1 μM, 0.3 μM; 1 μM, 3 μM, 10 μM and 30 μM (n=4 per dose) mostly on iCell® Cardiomyocytes2
as §3, §4, §5
Second line hSC derived cardiomyocyte called iCell®, Cardiomyocytes2 were purchased from FUJIFILM Cellular Dynamics (USA). The experiments with test drugs are carried out 5 to 7 days after plating the cells onto the plate to have a living, beating monolayer of hiPSC-derived cardiomyocytes. The beating monolayer in 96-well-plates are normally taken from 2 Vials of frozen iCell) Cardiomyocytes2 (≈5 million cells/vial), which will be plated onto […] 96-well plates (≈50K/well).
as §6, §7, §8, §9, §10, §11, §12, §13, §14
The following parameters of the Ca^2′ transient morphology were measured: • beat rate (BR) • amplitude of the Ca^2+ transient (Amp), • CTD90: Ca^2+ transient duration at 90% (time to 90% of the initial base value). […]

CC(C)[C@@H](CCC(C)(C)N)N1CC2(CCN(c3ncnnc3Oc3ccc(F)cc3-c3cncnc3C3CC3)C2)C1 (single isomer, unassigned) [Compound 37, (*R)-5-(6-(6-(2-(4-cyclopropylpyrimidin-5-yl)-4-fluorophenoxy)-1,2,4-triazin-5-yl)-2,6-diazaspiro[3.4]octan-2-yl)-2,6-dimethylheptan-2-amine]
Green: Color @ 0.1 μM (hazard score) (Cor.4U Cardiomyocytes; 0.1 μM) | Color @ 0.2 μM (hazard score) (Cor.4U Cardiomyocytes; 0.2 μM) | Color @ 0.5 μM (hazard score) (Cor.4U Cardiomyocytes; 0.5 μM) | Color @ 1 μM (hazard score) (Cor.4U Cardiomyocytes; 1 μM) | Color @ 2.5 μM (hazard score) (Cor.4U Cardiomyocytes; 2.5 μM) | Color @ 5 μM (hazard score) (Cor.4U Cardiomyocytes; 5 μM)

CCN(C(=O)c1cc(F)ccc1Oc1nncnc1N1CCC2(C1)CN([C@H](CCCN(C)CCC(=O)N(C)C)C(C)C)C2)C(C)C [Compound 246, (R)-2-((5-(2-(6-((3-(dimethylamino)-3-oxopropyl)(methyl)amino)-2-methylhexan-3-yl)-2,6-diazaspiro[3.4]octan-6-yl)-1,2,4-triazin-6-yl)oxy)-N-ethyl-5-fluoro-N-isopropylbenzamide formate]
Green: Color @ 0.1 μM (hazard score) (iCell Cardiomyocytes2; iCell Cardiomyocytes2, 0.1 μM) | Color @ 0.2 μM (hazard score) (iCell Cardiomyocytes2; iCell Cardiomyocytes2, 0.2 μM) | Color @ 0.5 μM (hazard score) (iCell Cardiomyocytes2; iCell Cardiomyocytes2, 0.5 μM) | Color @ 1 μM (hazard score) (iCell Cardiomyocytes2; iCell Cardiomyocytes2, 1 μM) | Color @ 2.5 μM (hazard score) (iCell Cardiomyocytes2; iCell Cardiomyocytes2, 2.5 μM) | Color @ 5 μM (hazard score) (iCell Cardiomyocytes2; iCell Cardiomyocytes2, 5 μM)
